The source of these data is patent publication US20210261512A1, “NOVEL COMPOUNDS” (INFLAZOME LIMITED, priority 2018, published 2021).

Each structure is given as a SMILES string. Bounds are passed on as bounds.

For test [1], the target named is T1, NLRP3 (Homo sapiens, UniProt Q96P20). Description: Human whole blood IL1β release assay. The format is cell-based. Particulars: LPS 1 μg/ml, nigericin 10 μM, IL-1β AlphaLisa, 10 μM top dose (Example 2: top dose of 30 μM), read-out: HWB IC50. In outline:
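Healthy-donor heparinised human whole blood with 1 μg/ml LPS, compound (8-point half-log dilution, 10 μM top dose unless stated; 0.1% DMSO vehicle) for 3 h at 37 °C, then nigericin 10 μM final for 1 h. Supernatant IL-1β by AlphaLISA; IC50 from 4-parameter variable-slope fit.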

Test [2] addresses T1, NLRP3. Description: THP-1 cells pyroptosis assay. Type of test: cell-based. On the set-up: Seed THP-1 cells (25,000 cells/well) containing 1.0 μg/ml LPS; host or cells: THP-1. Particulars: LPS 1.0 μg/ml, nigericin 5 μM, resazurin readout, 10 μM top dose (Example 2: top dose of 30 μM). In a few lines:
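Pyroptosis induced by 5 μM nigericin (1 h) in LPS-primed (1 μg/ml) THP-1 cells, 25,000/well in serum-free RPMI, after 3 h compound pre-treatment (8 points, 10 μM top unless stated). Surviving cells measured with 100 μM resazurin, Ex 560/Em 590; IC50 via variable-slope 4-parameter regression.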

T1 sequence (Q96P20 whole entry): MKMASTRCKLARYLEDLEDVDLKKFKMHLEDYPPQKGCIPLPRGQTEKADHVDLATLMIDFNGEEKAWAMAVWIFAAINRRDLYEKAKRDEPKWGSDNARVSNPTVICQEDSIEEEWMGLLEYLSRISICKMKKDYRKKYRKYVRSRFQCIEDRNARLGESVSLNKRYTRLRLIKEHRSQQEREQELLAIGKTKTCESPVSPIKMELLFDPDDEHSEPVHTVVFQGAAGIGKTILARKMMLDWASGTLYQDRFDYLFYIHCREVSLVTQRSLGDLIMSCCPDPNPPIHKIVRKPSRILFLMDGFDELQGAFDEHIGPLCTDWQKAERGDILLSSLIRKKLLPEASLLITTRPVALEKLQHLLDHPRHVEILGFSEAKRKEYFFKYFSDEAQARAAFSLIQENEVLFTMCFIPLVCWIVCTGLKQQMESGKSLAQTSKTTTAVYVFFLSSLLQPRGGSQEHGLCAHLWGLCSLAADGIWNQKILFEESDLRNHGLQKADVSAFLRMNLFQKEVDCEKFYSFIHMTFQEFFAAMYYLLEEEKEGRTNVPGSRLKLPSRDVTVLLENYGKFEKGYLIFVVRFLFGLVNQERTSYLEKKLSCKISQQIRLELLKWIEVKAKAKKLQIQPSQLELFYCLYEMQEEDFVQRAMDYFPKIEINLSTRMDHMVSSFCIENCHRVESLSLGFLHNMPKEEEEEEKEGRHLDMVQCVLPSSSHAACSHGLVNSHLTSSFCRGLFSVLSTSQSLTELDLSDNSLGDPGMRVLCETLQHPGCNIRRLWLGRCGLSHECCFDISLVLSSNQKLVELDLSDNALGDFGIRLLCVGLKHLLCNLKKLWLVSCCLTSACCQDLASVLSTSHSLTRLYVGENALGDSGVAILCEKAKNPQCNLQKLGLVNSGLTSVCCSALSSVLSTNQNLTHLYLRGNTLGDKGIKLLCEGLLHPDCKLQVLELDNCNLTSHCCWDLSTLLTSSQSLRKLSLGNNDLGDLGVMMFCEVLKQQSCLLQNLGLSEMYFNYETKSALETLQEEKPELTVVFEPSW

As to `O=S(=O)(c1nnc(Nc2c3c(cc4c2CCC4)CCC3)[nH]1)N1CCCC1` [Example 122, N-(1,2,3,5,6,7-hexahydro-s-indacen-4-yl)-5-(pyrrolidin-1-ylsulfonyl)-4H-1,2,4-triazol-3-amine], the values for the IC50 at NLRP3 [1] and on NLRP3 [2] were no more than 10000 nM and no more than 5000 nM, respectively.
On the same counts, the results for `CC(C)(O)[C@H]1CCN(S(=O)(=O)c2nnc(Nc3c4c(cc5c3CCC5)CCC4)[nH]2)C1` [Example 233, (S)-2-(1-((5-((1,2,3,5,6,7-hexahydro-s-indacen-4-yl)amino)-4H-1,2,4-triazol-3-yl)sulfonyl)pyrrolidin-3-yl)propan-2-ol] are no more than 5000 nM and no more than 500 nM.
Turning to `NS(=O)(=O)c1ccccc1S(=O)(=O)c1nnc(Nc2c3c(cc4c2CCC4)CCC3)[nH]1` [Example 325, 2-((5-((1,2,3,5,6,7-hexahydro-s-indacen-4-yl)amino)-4H-1,2,4-triazol-3-yl)sulfonyl)benzenesulfonamide], the IC50 at NLRP3 [1] was no more than 10000 nM; against NLRP3 [2] it was no more than 500 nM.
Take `CN(C)C(=O)Cn1ccc(S(=O)(=O)c2nnc(Nc3c4c(cc5c3CCC5)CCC4)[nH]2)n1` [Example 320, 2-(3-((5-((1,2,3,5,6,7-hexahydro-s-indacen-4-yl)amino)-4H-1,2,4-triazol-3-yl)sulfonyl)-1H-pyrazol-1-yl)-N,N-dimethylacetamide]: the IC50 at NLRP3 [1] was no more than 5000 nM; at NLRP3 [2], no more than 500 nM.
On to `O=S(=O)(c1nnc(Nc2c3c(cc4c2CCC4)CCC3)[nH]1)N1CC2(CCOC2)C1` [Example 146, 5-(6-oxa-2-azaspiro[3.4]octan-2-ylsulfonyl)-N-(1,2,3,5,6,7-hexahydro-s-indacen-4-yl)-4H-1,2,4-triazol-3-amine], for which the results for the IC50 at NLRP3 [1] and against NLRP3 [2] were no more than 10000 nM and no more than 5000 nM, respectively.
On the same counts, the results for `CC(c1cc(S(=O)(=O)c2nnc(Nc3c4c(cc5c3CCC5)CCC4)[nH]2)nn1C)N(C)C` (stereo not shown) [Example 5, 5-((5-(1-(dimethylamino)ethyl)-1-methyl-1H-pyrazol-3-yl)sulfonyl)-N-(1,2,3,5,6,7-hexahydro-s-indacen-4-yl)-4H-1,2,4-triazol-3-amine] are no more than 10000 nM and no more than 500 nM.
In the case of `CN1CC2CN(S(=O)(=O)c3nnc(Nc4c5c(cc6c4CCC6)CCC5)[nH]3)CC2C1` (stereo not shown) [Example 138, N-(1,2,3,5,6,7-hexahydro-s-indacen-4-yl)-5-((5-methylhexahydropyrrolo[3,4-c]pyrrol-2 (1H)-yl)sulfonyl)-4H-1,2,4-triazol-3-amine], the IC50 on NLRP3 [1] and at NLRP3 [2] was no more than 5000 nM throughout.
In the case of `CN1CCC2(CC1)CN(S(=O)(=O)c1nnc(Nc3c4c(cc5c3CCC5)CCC4)[nH]1)C2` [Example 275, N-(1,2,3,5,6,7-hexahydro-s-indacen-4-yl)-5-((7-methyl-2,7-diazaspiro[3-5]nonan-2-yl)sulfonyl)-4H-1,2,4-triazol-3-amine], the results for the IC50 at NLRP3 [1] and against NLRP3 [2] were no more than 1000 nM and no more than 5000 nM, respectively.
`CN1CCCC(CNS(=O)(=O)c2nnc(Nc3c4c(cc5c3CCC5)CCC4)[nH]2)C1` (stereo not shown) [Example 128, 5-((1,2,3,5,6,7-hexahydro-s-indacen-4-yl)amino)-N-((1-methylpiperidin-3-yl)methyl)-4H-1,2,4-triazole-3-sulfonamide]: the IC50 on NLRP3 [1] was no more than 10000 nM; on NLRP3 [2], no more than 1000 nM.
The corresponding values for `O=S(=O)(c1nnc(Nc2c3c(cc4c2CCC4)CCC3)[nH]1)c1ccccc1F` [Example 179, 5-((2-fluorophenyl)sulfonyl)-N-(1,2,3,5,6,7-hexahydro-s-indacen-4-yl)-4H-1,2,4-triazol-3-amine] are no more than 10000 nM and no more than 1000 nM.
In the case of `CCNC[C@H]1CCN(S(=O)(=O)c2nnc(Nc3c4c(cc5c3CCC5)CCC4)[nH]2)C1` [Example 308, (R)-5-((3-((ethylamino)methyl)pyrrolidin-1-yl)sulfonyl)-N-(1,2,3,5,6,7-hexahydro-s-indacen-4-yl)-4H-1,2,4-triazol-3-amine], the IC50 at NLRP3 [1] is no more than 5000 nM; at NLRP3 [2] it was no more than 500 nM.
On to `CC(C)N1CCN(S(=O)(=O)c2nnc(Nc3c4c(cc5c3CCC5)CCC4)[nH]2)CC1` [Example 117, N-(1,2,3,5,6,7-hexahydro-s-indacen-4-yl)-5-((4-isopropylpiperazin-1-yl)sulfonyl)-4H-1,2,4-triazol-3-amine], for which the IC50 on NLRP3 [1] is no more than 5000 nM; at NLRP3 [2], no more than 1000 nM.
As to `CN(C)C1CCN(S(=O)(=O)c2nnc(Nc3c(-c4ccnc(C5CC5)c4)ccc4c3CCC4)[nH]2)CC1` [Example 199, 1-((5-((5-(2-cyclopropylpyridin-4-yl)-2,3-dihydro-1H-inden-4-yl)amino)-4H-1,2,4-triazol-3-yl)sulfonyl)-N,N-dimethylpiperidin-4-amine], the IC50 on NLRP3 [1] is no more than 5000 nM; against NLRP3 [2], no more than 500 nM.
On the same counts, the results for `CN1CCCCC1CCS(=O)(=O)c1nnc(Nc2c3c(cc4c2CCC4)CCC3)[nH]1` (stereo not shown) [Example 59, N-(1,2,3,5,6,7-Hexahydro-s-indacen-4-yl)-3-((2-(1-methylpiperidin-2-yl)ethyl)sulfonyl)-1H-1,2,4-triazol-5-amine] are no more than 1000 nM and no more than 500 nM.
Consider `CN1CCCC12CCN(S(=O)(=O)c1nnc(Nc3c(-c4ccnc(OC(F)F)c4)ccc4c3CCC4)[nH]1)CC2` [Example 201, N-(5-(2-(difluoromethoxy)pyridin-4-yl)-2,3-dihydro-1H-inden-4-yl)-5-((1-methyl-1,8-diazaspiro[4.5]decan-8-yl)sulfonyl)-4H-1,2,4-triazol-3-amine], for which the IC50 on NLRP3 [1] and against NLRP3 [2] was no more than 500 nM each time.
Consider `CN1CCOC2(C1)CN(S(=O)(=O)c1nnc(Nc3c4c(cc5c3CCC5)CCC4)[nH]1)C2` [Example 295, N-(1,2,3,5,6,7-hexahydro-s-indacen-4-yl)-5-((8-methyl-5-oxa-2,8-diazaspiro[3-5]nonan-2-yl)sulfonyl)-4H-1,2,4-triazol-3-amine], for which the IC50 at NLRP3 [1] was no more than 1000 nM; against NLRP3 [2], no more than 500 nM.
On to `COc1cc(-c2cc(F)cc(C(C)C)c2Nc2nnc(S(=O)(=O)N3CC4(CCN(C)C4)C3)[nH]2)ccn1` [Example 248, N-(4-fluoro-2-isopropyl-6-(2-methoxypyridin-4-yl)phenyl)-5-((6-methyl-2,6-diazaspiro[3.4]octan-2-yl)sulfonyl)-4H-1,2,4-triazol-3-amine], for which the IC50 on NLRP3 [1] was no more than 1000 nM; on NLRP3 [2], no more than 500 nM.
In the case of `O=S(=O)(c1nnc(Nc2c3c(cc4c2CCC4)CCC3)[nH]1)N1CCC(N2CCCC2)CC1` [Example 124, N-(1,2,3,5,6,7-hexahydro-s-indacen-4-yl)-5-((4-(pyrrolidin-1-yl)piperidin-1-yl)sulfonyl)-4H-1,2,4-triazol-3-amine], the IC50 at NLRP3 [1] is no more than 5000 nM; against NLRP3 [2], no more than 1000 nM.
With `O=S(=O)(c1nnc(Nc2c3c(cc4c2CCC4)CCC3)[nH]1)N1CC2(CCOCC2)C1` [Example 145, 5-(7-oxa-2-azaspiro[35]nonan-2-ylsulfonyl)-N-(1,2,3,5,6,7-hexahydro-s-indacen-4-yl)-4H-1,2,4-triazol-3-amine], the IC50 is no more than 5000 nM on NLRP3 [1] and no more than 1000 nM against NLRP3 [2].
For `O=S(=O)(c1nnc(Nc2c3c(cc4c2CCC4)CCC3)[nH]1)N1CC[C@H](CNC2CC2)C1` [Example 307, (R)-5-((3-((cyclopropylamino)methyl)pyrrolidin-1-yl)sulfonyl)-N-(1,2,3,5,6,7-hexahydro-s-indacen-4-yl)-4H-1,2,4-triazol-3-amine], the IC50 on NLRP3 [1] was no more than 10000 nM; against NLRP3 [2], no more than 1000 nM.
